Where two headings read alike, the source gives them in different places.
What was measured:
[1] = Megestrol Acetate in plasma samples by GC/MS; format: in vivo; settings: human; for concentration at 1 h: 1 h post dosing; for concentration at 2 h: 2 h post dosing; for concentration at 4 h: 4 h post dosing; for concentration at 8 h: 8 h post dosing; for concentration at 12 h: 12 h post dosing; for concentration at 24 h: 24 h post dosing; for concentration at 36 h: 36 h post dosing; for concentration at 48 h: 48 h post dosing; for concentration at 0 h: time 0 h (predose)
Protocol: A total of 90 plasma samples were analyzed for their content of Megestrol Acetate by GC/MS.
In this study megestrol acetate was utilized and medroxyprogesterone acetate was utilized as an internal standard.
For each sample, 1 mL of human plasma was aliquoted and spiked with 25 μL of the internal standard working solution. In the following, the samples were alkalized and extracted with a toluene/diisopropylether mixture. The resulting extracts were stored in a refrigerator until measurement. Just prior to measurement, the sample extracts were evaporated to dryness and reconstituted in toluene. 2 μL of the resulting solution were injected into the GC/MS system. The gas chromatograph was run in the temperature-programmed mode to achieve improved separation. Positive ions chemical ionization (PICI) was used for mass selective detection. Selected mass/charge ratios were m/z 385.2 for megestrol acetate and m/z 387.2 for the internal standard.
The time measured represents the number of hours passed post dosing. Subjects 2, 4, 6, 8 and 10 all received a 6 mg dose of megestrol acetate. Subjects 1, 3, 5, 7 and 9 all received a 1.5 mg dose of megestrol acetate. […] A third measurement was not possible due to insufficient sample. During the study, 3 series of plasma calibration curves were measured (prevalidation run not considered).

[2] = test system: menopausal hot flashes; settings: cited from earlier work

In the case of `CC(=O)O[C@]1(C(C)=O)CC[C@H]2[C@@H]3C=C(C)C4=CC(=O)CC[C@]4(C)[C@H]3CC[C@@]21C` [megestrol acetate, Pregna-4,6-diene-3,20-dione, 17-(acetyloxy)-6-methyl-], the concentration at 1 h ([1]; 1.5 mg, Sub 1, 1.5 mg dose) is reported as 7.82 ng/mL, the concentration at 2 h ([1]; 1.5 mg, Sub 1, 1.5 mg dose) is reported as 2.74 ng/mL and the concentration at 4 h ([1]; 1.5 mg, Sub 1, 1.5 mg dose) is reported as 1.01 ng/mL. For the same compound, the concentration at 8 h ([1]; 1.5 mg, Sub 1, 1.5 mg dose) was 0.607 ng/mL, the concentration at 12 h ([1]; 1.5 mg, Sub 1, 1.5 mg dose) was 0.413 ng/mL and the concentration at 24 h ([1]; 1.5 mg, Sub 1, 1.5 mg dose) was 0.399 ng/mL. It also gave a concentration at 36 h ([1]; 1.5 mg, Sub 1, 1.5 mg dose) of 0.504 ng/mL, a concentration at 48 h ([1]; 1.5 mg, Sub 1, 1.5 mg dose) of 0.463 ng/mL and a concentration at 0 h ([1]; 1.5 mg, Sub 1, 1.5 mg dose) of 0.492 ng/mL. The concentration at 1 h ([1]; 1.5 mg, Sub 3, 1.5 mg dose) was 9.32 ng/mL, the concentration at 2 h ([1]; 1.5 mg, Sub 3, 1.5 mg dose) was 5.24 ng/mL and the concentration at 4 h ([1]; 1.5 mg, Sub 3, 1.5 mg dose) was 3.04 ng/mL. It also gave a concentration at 8 h ([1]; 1.5 mg, Sub 3, 1.5 mg dose) of 2.66 ng/mL, a concentration at 12 h ([1]; 1.5 mg, Sub 3, 1.5 mg dose) of 1.98 ng/mL and a concentration at 24 h ([1]; 1.5 mg, Sub 3, 1.5 mg dose) of 1.8 ng/mL. The concentration at 36 h ([1]; 1.5 mg, Sub 3, 1.5 mg dose) was 1.99 ng/mL, the concentration at 48 h ([1]; 1.5 mg, Sub 3, 1.5 mg dose) was 1.48 ng/mL and the concentration at 0 h ([1]; 1.5 mg, Sub 3, 1.5 mg dose) was 1.98 ng/mL. For the same compound, the concentration at 1 h ([1]; 1.5 mg, Sub 5, 1.5 mg dose) was 4.98 ng/mL, the concentration at 2 h ([1]; 1.5 mg, Sub 5, 1.5 mg dose) was 2.75 ng/mL and the concentration at 4 h ([1]; 1.5 mg, Sub 5, 1.5 mg dose) was 0.959 ng/mL. For the same compound, the concentration at 8 h ([1]; 1.5 mg, Sub 5, 1.5 mg dose) was 0.521 ng/mL, the concentration at 12 h ([1]; 1.5 mg, Sub 5, 1.5 mg dose) was 0.353 ng/mL and the concentration at 24 h ([1]; 1.5 mg, Sub 5, 1.5 mg dose) was 0.344 ng/mL. For the same compound, the concentration at 36 h ([1]; 1.5 mg, Sub 5, 1.5 mg dose) was 0.409 ng/mL, the concentration at 48 h ([1]; 1.5 mg, Sub 5, 1.5 mg dose) was 0.267 ng/mL and the concentration at 0 h ([1]; 1.5 mg, Sub 5, 1.5 mg dose) was 0.426 ng/mL. For the same compound, the concentration at 1 h ([1]; 1.5 mg, Sub 7, 1.5 mg dose) was 7.82 ng/mL, the concentration at 2 h ([1]; 1.5 mg, Sub 7, 1.5 mg dose) was 4.83 ng/mL and the concentration at 4 h ([1]; 1.5 mg, Sub 7, 1.5 mg dose) was 1.99 ng/mL. The concentration at 8 h ([1]; 1.5 mg, Sub 7, 1.5 mg dose) was 1.47 ng/mL, the concentration at 12 h ([1]; 1.5 mg, Sub 7, 1.5 mg dose) was 1.59 ng/mL and the concentration at 24 h ([1]; 1.5 mg, Sub 7, 1.5 mg dose) was 0.771 ng/mL. It also gave a concentration at 36 h ([1]; 1.5 mg, Sub 7, 1.5 mg dose) of 0.592 ng/mL, a concentration at 48 h ([1]; 1.5 mg, Sub 7, 1.5 mg dose) of 0.564 ng/mL and a concentration at 0 h ([1]; 1.5 mg, Sub 7, 1.5 mg dose) of 0.851 ng/mL. It also gave a concentration at 1 h ([1]; 1.5 mg, Sub 9, 1.5 mg dose) of 14.4 ng/mL, a concentration at 2 h ([1]; 1.5 mg, Sub 9, 1.5 mg dose) of 9.21 ng/mL and a concentration at 4 h ([1]; 1.5 mg, Sub 9, 1.5 mg dose) of 4.02 ng/mL. The concentration at 8 h ([1]; 1.5 mg, Sub 9, 1.5 mg dose) was 1.64 ng/mL, the concentration at 12 h ([1]; 1.5 mg, Sub 9, 1.5 mg dose) was 1.59 ng/mL and the concentration at 24 h ([1]; 1.5 mg, Sub 9, 1.5 mg dose) was 1.09 ng/mL. The concentration at 36 h ([1]; 1.5 mg, Sub 9, 1.5 mg dose) was 1.3 ng/mL, the concentration at 48 h ([1]; 1.5 mg, Sub 9, 1.5 mg dose) was 1.31 ng/mL and the concentration at 0 h ([1]; 1.5 mg, Sub 9, 1.5 mg dose) was 1.4 ng/mL. It also gave a concentration at 1 h ([1]; 6 mg, Sub 2, 6 mg dose) of 32.9 ng/mL, a concentration at 2 h ([1]; 6 mg, Sub 2, 6 mg dose) of 28.1 ng/mL and a concentration at 4 h ([1]; 6 mg, Sub 2, 6 mg dose) of 9.89 ng/mL. The concentration at 8 h ([1]; 6 mg, Sub 2, 6 mg dose) was 6.98 ng/mL, the concentration at 12 h ([1]; 6 mg, Sub 2, 6 mg dose) was 5.84 ng/mL and the concentration at 24 h ([1]; 6 mg, Sub 2, 6 mg dose) was 4.4 ng/mL. The concentration at 36 h ([1]; 6 mg, Sub 2, 6 mg dose) was 5.04 ng/mL, the concentration at 48 h ([1]; 6 mg, Sub 2, 6 mg dose) was 3.58 ng/mL and the concentration at 0 h ([1]; 6 mg, Sub 2, 6 mg dose) was 6.48 ng/mL. The concentration at 1 h ([1]; 6 mg, Sub 4, 6 mg dose) was 37.4 ng/mL, the concentration at 2 h ([1]; 6 mg, Sub 4, 6 mg dose) was 18.7 ng/mL and the concentration at 4 h ([1]; 6 mg, Sub 4, 6 mg dose) was 7.22 ng/mL. It also gave a concentration at 8 h ([1]; 6 mg, Sub 4, 6 mg dose) of 4.7 ng/mL, a concentration at 12 h ([1]; 6 mg, Sub 4, 6 mg dose) of 3.05 ng/mL and a concentration at 24 h ([1]; 6 mg, Sub 4, 6 mg dose) of 2.17 ng/mL. For the same compound, the concentration at 36 h ([1]; 6 mg, Sub 4, 6 mg dose) was 3.58 ng/mL, the concentration at 48 h ([1]; 6 mg, Sub 4, 6 mg dose) was 2.9 ng/mL and the concentration at 0 h ([1]; 6 mg, Sub 4, 6 mg dose) was 4.44 ng/mL. For the same compound, the concentration at 1 h ([1]; 6 mg, Sub 6, 6 mg dose) was 44 ng/mL, the concentration at 2 h ([1]; 6 mg, Sub 6, 6 mg dose) was 32.1 ng/mL and the concentration at 4 h ([1]; 6 mg, Sub 6, 6 mg dose) was 12.6 ng/mL. The concentration at 8 h ([1]; 6 mg, Sub 6, 6 mg dose) was 7.61 ng/mL, the concentration at 12 h ([1]; 6 mg, Sub 6, 6 mg dose) was 5.8 ng/mL and the concentration at 24 h ([1]; 6 mg, Sub 6, 6 mg dose) was 4.04 ng/mL. For the same compound, the concentration at 36 h ([1]; 6 mg, Sub 6, 6 mg dose) was 6.58 ng/mL, the concentration at 48 h ([1]; 6 mg, Sub 6, 6 mg dose) was 5.65 ng/mL and the concentration at 0 h ([1]; 6 mg, Sub 6, 6 mg dose) was 8.58 ng/mL. It also gave a concentration at 1 h ([1]; 6 mg, Sub 8, 6 mg dose) of 19.5 ng/mL, a concentration at 2 h ([1]; 6 mg, Sub 8, 6 mg dose) of 10.6 ng/mL and a concentration at 4 h ([1]; 6 mg, Sub 8, 6 mg dose) of 3.68 ng/mL. The concentration at 8 h ([1]; 6 mg, Sub 8, 6 mg dose) was 1.41 ng/mL, the concentration at 12 h ([1]; 6 mg, Sub 8, 6 mg dose) was 0.908 ng/mL and the concentration at 24 h ([1]; 6 mg, Sub 8, 6 mg dose) was 0.459 ng/mL. For the same compound, the concentration at 36 h ([1]; 6 mg, Sub 8, 6 mg dose) was 1.34 ng/mL, the concentration at 48 h ([1]; 6 mg, Sub 8, 6 mg dose) was 0.796 ng/mL and the concentration at 0 h ([1]; 6 mg, Sub 8, 6 mg dose) was less than 0.1 ng/mL. The concentration at 1 h ([1]; 6 mg, Sub 10, 6 mg dose) was 23.5 ng/mL, the concentration at 2 h ([1]; 6 mg, Sub 10, 6 mg dose) was 17.2 ng/mL and the concentration at 4 h ([1]; 6 mg, Sub 10, 6 mg dose) was 6.93 ng/mL. For the same compound, the concentration at 8 h ([1]; 6 mg, Sub 10, 6 mg dose) was 4.95 ng/mL, the concentration at 12 h ([1]; 6 mg, Sub 10, 6 mg dose) was 2.85 ng/mL and the concentration at 24 h ([1]; 6 mg, Sub 10, 6 mg dose) was 1.77 ng/mL. The concentration at 36 h ([1]; 6 mg, Sub 10, 6 mg dose) was 2.6 ng/mL, the concentration at 48 h ([1]; 6 mg, Sub 10, 6 mg dose) was 1.63 ng/mL and the “decrease of menopausal hot flashes” value ([2]; daily dose 20 mg) was 80%. The “decrease of menopausal hot flashes” value ([2]; daily dose 40 mg) was 89% and the “decrease of menopausal hot flashes” value ([2]; daily dose 80 mg) was 98%.
